Measured values taken from PubChem BioAssay AID743359 (Molecular Libraries Program, Specialized Chemistry Center, …, 2014).
Calls of active or inactive are those of the source.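 How the source made its calls: active means compounds whose half-maximal inhibitory concentration IC50 is 20 µM or lower; inactive means the rest.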

System: isolated mouse liver mitochondria, Ca2+ swelling, A540 20 min
Experiment: mtPTP inhibitors blocking calcium-induced swelling, dose response, dry powder samples, uHTS hits, absorbance (AID 743359)

Structure (SMILES) | IC50
COc1ccc(Cl)c(C(=O)Nc2ccc(CCN3CCN(C(=O)OC(C)(C)C)CC3)cc2)c1 | > 50 µM (inactive)
CN1CCN(c2ccc(NS(=O)(=O)c3cccc(Cl)c3)cc2)CC1 | > 50 µM (inactive)
O=C(Nc1ccc(N2CCCCC2)cc1)c1cccc(OCc2ccccc2)c1 | > 50 µM (inactive)
COc1ccc(Cl)cc1S(=O)(=O)Nc1ccc(CN2CCN(C)CC2)cc1 | > 50 µM (inactive)
COc1ccc(Cl)c(C(=O)Nc2cccc(CN3CCN(C(=O)OC(C)(C)C)CC3)c2)c1 | > 50 µM (inactive)
COc1ccc(Cl)cc1C(=O)Nc1ccc(CCN2CCN(C(=O)OC(C)(C)C)CC2)cc1 | 20.1 µM
O=S(=O)(Nc1ccc(CCN2CCCCC2)cc1)c1cccc(Cl)c1 | > 50 µM (inactive)
CN1CCN(c2ccc(NS(=O)(=O)c3ccc(F)c(Cl)c3)cc2)CC1 | > 50 µM (inactive)
COc1ccc(Cl)c(C(=O)Nc2ccc(CCN3CCCCC3)cc2)c1 | > 50 µM (inactive)
COc1ccc(Cl)cc1S(=O)(=O)Nc1ccc(CCN2CCN(C)CC2)cc1 | > 50 µM (inactive)
CC1CCN(CCCC(=O)c2ccc(Br)cc2)CC1 | 40.9 µM (inactive)
O=C(Nc1ccc(CCN2CCCCC2)cc1)c1cccc(OCc2ccccc2)c1 | 2.3 µM
CN1CCN(c2ccc(NC(=O)c3cccc(OCc4ccccc4)c3)cc2)CC1 | 1.92 µM
COc1ccc(Cl)cc1S(=O)(=O)Nc1ccc(N2CCN(C)CC2)cc1 | > 50 µM (inactive)
COc1ccc(Cl)c(C(=O)Nc2ccc(CN3CCN(C(=O)OC(C)(C)C)CC3)cc2)c1 | 18.2 µM (inactive)
O=S(=O)(Nc1ccc(CN2CCCCC2)cc1)c1ccc(F)c(Cl)c1 | > 50 µM (inactive)
O=C(Nc1ccc(CN2CCCCC2)cc1)c1cc(OCc2ccccc2)ccc1Cl | 2.44 µM
C[C@@H]1CCC[C@H](C)N1CCCC(=O)c1ccc(Br)cc1 | > 50 µM (inactive)
O=S(=O)(Nc1ccc(CN2CCCCC2)cc1)c1cc(Cl)cc(Cl)c1 | > 50 µM (inactive)
COc1ccc(Cl)cc1S(=O)(=O)Nc1ccc(CN2CCCCC2)cc1 | > 50 µM (inactive)
COc1ccc(Cl)cc1C(=O)Nc1ccc(CCN2CCN(C)CC2)cc1 | 10.7 µM
CN1CCN(Cc2ccc(NS(=O)(=O)c3cc(Cl)cc(Cl)c3)cc2)CC1 | 23.3 µM (inactive)
O=S(=O)(Nc1ccc(CCN2CCCCC2)cc1)c1ccc(F)c(Cl)c1 | > 50 µM (inactive)

Structure (SMILES) | IC50
COc1ccc(Cl)cc1C(=O)Nc1ccc(CN2CCN(C(=O)OC(C)(C)C)CC2)cc1 | 14.9 µM
O=S(=O)(Nc1ccc(CCN2CCCCC2)cc1)c1cc(Cl)cc(Cl)c1 | 25.1 µM (inactive)
COc1ccc(Cl)c(C(=O)Nc2ccc(CCN3CCN(C)CC3)cc2)c1 | > 50 µM (inactive)
CC(C)C1CCN(CCCC(=O)c2ccc(Br)cc2)CC1 | 10.3 µM
COc1ccc(Cl)cc1S(=O)(=O)Nc1ccc(CCN2CCCCC2)cc1 | > 50 µM (inactive)
CN1CCN(CCc2ccc(NC(=O)c3cccc(OCc4ccccc4)c3)cc2)CC1 | 3.84 µM
CN1CCN(CCc2ccc(NS(=O)(=O)c3cc(Cl)cc(Cl)c3)cc2)CC1 | 47.8 µM (inactive)
CN1CCN(Cc2ccc(NS(=O)(=O)c3cccc(Cl)c3)cc2)CC1 | > 50 µM (inactive)
COc1ccccc1C(=O)Nc1ccc(C(=O)N2CCCCC2)cc1 | > 50 µM (inactive)
COc1ccccc1C(=O)Nc1ccc(CN2CCCCC2)cc1 | 46.5 µM (inactive)
COc1ccc(C(=O)CCN2CCCC(C)C2)cc1 (centres undefined) | 38 µM (inactive)
CCN(CC)c1ccc(NC(=O)c2ccc(OC)c(Cl)c2)cc1 | > 50 µM (inactive)
CN1CCN(Cc2ccc(NS(=O)(=O)c3ccc(F)c(Cl)c3)cc2)CC1 | > 50 µM (inactive)
CN1CCN(Cc2ccc(NC(=O)c3cccc(OCc4ccccc4)c3)cc2)CC1 | 3.31 µM
O=C(Nc1ccc(CN2CCCCC2)cc1)c1ccc(Cl)c(OCc2ccccc2)c1 | < 0.391 µM
CN1CCN(CCc2ccc(NS(=O)(=O)c3ccc(F)c(Cl)c3)cc2)CC1 | > 50 µM (inactive)
CN1CCN(CCc2ccc(NS(=O)(=O)c3cccc(Cl)c3)cc2)CC1 | > 50 µM (inactive)
O=S(=O)(Nc1ccc(CN2CCCCC2)cc1)c1cccc(Cl)c1 | > 50 µM (inactive)
CC1(C)CCN(CCCC(=O)c2ccc(Br)cc2)CC1 | 13.9 µM
O=C(Nc1ccc(CN2CCCCC2)cc1)c1cccc(OCc2ccccc2)c1 | 0.95 µM
CN1CCN(c2ccc(NC(=O)c3ccc(OCc4ccccc4)cc3)cc2)CC1 | > 50 µM (inactive)
CN1CCN(c2ccccc2NC(=O)c2ccc(OCc3ccccc3)cc2)CC1 | 2.3 µM

Continued, values first:

IC50 | Structure (SMILES)
13.8 µM | COc1ccc(Cl)cc1C(=O)Nc1ccc(CCN2CCOCC2)cc1
< 0.391 µM | O=C(Nc1cc(Cl)cc(Cl)c1)c1cc(-c2cccc(O)c2)on1
6.35 µM (inactive) | COc1ccc(Cl)cc1C(=O)Nc1ccccc1
10.1 µM | COc1ccc(Cl)cc1C(=O)Nc1ccc(N(C)C)cc1
< 0.391 µM | O=C(Nc1ccc(CN2CCCCC2)cc1)c1cc(Cl)cc(OCc2ccccc2)c1
> 50 µM (inactive) | COc1ccc(Cl)cc1C(=O)Nc1ccc(N2CCCCC2)cc1
> 50 µM (inactive) | Cc1cc(NC(=O)c2ccc(-n3cnnc3)cc2)no1
> 50 µM (inactive) | Cc1ccc(-c2cc(C(=O)Nc3cccc(Cl)c3)no2)cc1
0.423 µM | O=C(Nc1ccc(Cl)cc1)c1cc(-c2cccc(O)c2)on1
> 50 µM (inactive) | CCCc1cc(C(=O)Nc2ccc(Br)cc2)no1
6 µM | COc1ccc(Cl)cc1C(=O)Nc1ccc(CCN2CCCCC2)cc1
> 50 µM (inactive) | COc1ccc(NC(=O)c2cc(Cl)cc(Cl)c2OC)cc1
> 50 µM (inactive) | COc1ccc(Cl)c(C(=O)Nc2ccc(CCN3CCOCC3)cc2)c1
5.28 µM | COc1ccc(Cl)cc1C(=O)Nc1ccc(CCN2CCNCC2)cc1
< 0.391 µM | O=C(Nc1cc(Cl)ccc1F)c1cc(-c2cccc(O)c2)on1
> 50 µM (inactive) | Cc1cc(NC(=O)c2cc(-c3ccc(F)cc3)on2)no1
< 0.391 µM | Cc1ccc(Cl)cc1NC(=O)c1cc(-c2cccc(O)c2)on1
> 50 µM (inactive) | O=C(Nc1ccc(F)cc1F)c1cc(-c2ccccc2)on1
< 0.391 µM | COc1ccc(/C=C/C(=O)Nc2cccc(Cl)c2)cc1O
> 50 µM (inactive) | CCc1ccccc1NC(=O)c1cc(-c2ccccc2)on1
24 µM (inactive) | CC(C)c1cc(C(=O)Nc2ccc(F)cc2F)no1
> 50 µM (inactive) | O=C(Nc1ccccc1OCc1ccccc1)c1cc(-c2cccc(O)c2)on1
> 50 µM (inactive) | O=C(Nc1ccccc1C(F)(F)F)c1cc(-c2ccccc2)on1
> 50 µM (inactive) | CCN(C(=O)c1cc(Cl)ccc1OC)c1ccccc1
13.5 µM | COc1ccc(Cl)cc1C(=O)Nc1ccc(CN2CCN(C)CC2)cc1
> 50 µM (inactive) | COc1ccc(NC(=O)c2cc(-c3ccc(Cl)cc3)on2)cc1Cl
> 50 µM (inactive) | O=C(Nc1ccc(CN2CCCCC2)cc1)c1cc(Cl)ccc1O

IC50 | Structure (SMILES)
< 0.391 µM | O=C(Nc1cccc(Cl)c1)c1cc(-c2cccc(O)c2)on1
44.9 µM (inactive) | CN1CCN(c2ccc(NS(=O)(=O)c3cc(Cl)cc(Cl)c3)cc2)CC1
> 50 µM (inactive) | COc1ccc(Cl)cc1C(=O)Nc1cccc(CN2CCN(C(=O)OC(C)(C)C)CC2)c1
> 50 µM (inactive) | O=C(Nc1cccc(Cl)c1)c1cc(-c2ccc(Cl)cc2)on1
4.74 µM | COc1ccc(Cl)cc1C(=O)Nc1cccc(CN2CCNCC2)c1
6.34 µM | O=C(Nc1ccc(Br)cc1)c1cc(C2CC2)on1
15.1 µM | COc1ccc(Cl)cc1C(=O)Nc1ccc(CN2CCOCC2)cc1
> 50 µM (inactive) | O=C(Nc1ccc(OCc2ccccc2)c(Cl)c1)c1cc(-c2cccc(O)c2)on1
15 µM | O=C(Nc1ccc(CN2CCCCC2)cc1)c1cccc(Cl)c1
4.96 µM | CCCc1cc(C(=O)Nc2c(F)cc(F)cc2Br)no1
1.72 µM | COc1ccc(Cl)cc1C(=O)Nc1ccc(CN2CCCCC2)cc1
< 0.391 µM | Cc1c(Cl)cccc1NC(=O)c1cc(-c2cccc(O)c2)on1
10.4 µM | O=C(Nc1cccc(Cl)c1Cl)c1cc(-c2cccc(O)c2)on1
> 50 µM (inactive) | COc1ccc(Cl)c(C(=O)Nc2ccc(CN3CCOCC3)cc2)c1
> 50 µM (inactive) | COc1ccc(Cl)c(C(=O)Nc2ccc(CN3CCN(C)CC3)cc2)c1
> 50 µM (inactive) | O=C(Nc1ccc(Cl)cc1)c1cc(-c2ccccc2)on1
> 50 µM (inactive) | COc1ccc(Cl)cc1C(=O)Nc1ccc(N2CCOCC2)cc1
1.6 µM | O=C(Nc1cc(Cl)ccc1Cl)c1cc(-c2cccc(O)c2)on1
0.69 µM | CN1CCN(c2ccc(Cl)cc2NC(=O)/C=C/c2cccc(F)c2)CC1
40 µM (inactive) | COc1cccc(-c2cc(C(=O)Nc3cc(Cl)ccc3C)no2)c1
6.13 µM | COc1ccc(Cl)cc1C(=O)Nc1ccc(N2CCN(C)CC2)cc1
2.24 µM | COc1ccc(Cl)cc1C(=O)Nc1ccc(CN2CCNCC2)cc1
4.61 µM | O=C(Nc1cccc(F)c1)c1cc(-c2cccc(O)c2)on1
47.2 µM (inactive) | O=C(Nc1cccc(Cl)c1)c1cc(-c2ccccc2)on1
27.6 µM (inactive) | COc1c(Cl)cccc1NC(=O)c1cc(-c2cccc(O)c2)on1
< 0.391 µM | COc1ccc(NC(=O)c2cc(-c3cccc(O)c3)on2)cc1Cl
0.83 µM | Cc1ccc(NC(=O)c2cc(-c3cccc(O)c3)on2)cc1Cl
